Measured values published in paper PMC8891108, “Development and characterization of anti-fibrotic natural compound similars with improved effectivity” (Basic Research in Cardiology, 2022).

Experiments:
Type in all cases: cell-based
[1] = tested on: human cardiac fibroblasts (HCF); assay: BrdU incorporation, HCF proliferation (first screen); conditions: Homo sapiens, Cardiac fibroblast; HCF, 24 h treatment; read-out: Effective conc. (BrdU), EC50 by BrdU assay
Procedure: 96-well plates (TPP) were coated with 0.1% gelatine and seeded with 7500 HCFs/well. After 72 h, medium was exchanged with serial dilutions of compounds in FGM-3 + 1.6% DMSO + 1% 5-bromo-2′-deoxyuridine (BrdU, Roche, #11647229001), prepared in additional plates. After 24 h, cells were washed twice with DPBS (Gibco, #14190144) before incubation with anti-BrdU:POD (Roche, #11647229001) for 60 min (RT). Readout was performed by measurement of absorbance at 370 nm + 490 nm in a Synergy HT (BioTek) microplate reader. […] As validation, HCF were seeded as before, but treated with serial dilutions of compounds after 24 h. […] After 60 min of incubation (37 °C, in the dark), absorbance at 450 nm + 630 nm was measured maintaining 37 °C and analysed as described before.
To assess screening quality, quality acceptance criteria Z′ (Z prime), SW (signal window), S:B (signal-to-background), S:N (signal-to-noise) were determined following. Average Z′ ≥ 0.5 and SW ≥ 2 were required to accept the screening overall, whereas single plates were rejected from analysis if Z′ < 0.3 or SW < 1.

[2] = tested on: human living myocardial slices; assay: Ex vivo human living myocardial slices, qPCR gene expression; conditions: 48 h
Description: Myocardial slices were generated from human left ventricular heart specimens taken from failing hearts at the time of transplantation. Tissue was obtained from the Clinic for Cardiac, Thoracic, Transplant and Vascular Surgery at the Hannover Medical School (MHH), Hannover, Germany. Patients provided informed consent to the scientific use of the explanted tissue.
The preparation and culture of myocardial slices has been described before. Briefly, human heart specimens were sliced into 300 µm thick slices using a vibrating microtome (Campden Instruments, #7000smz-2) while in ice-cold 30 mM 2,3-butanedione monoxime + 1 mM D-glucose + 10 mM HEPES + 6 mM KCl + 140 mM NaCl + 1 mM MgCl2 + 1.8 mM CaCl2 (cardioplegic Tyrode’s solution), before being trimmed into approx. 7 × 7 mm pieces of aligned muscle fibres.
After 48 h in culture, myocardial slices were frozen in liquid nitrogen and stored at −80 °C for further gene expression analysis.
A mix of forward and reverse primer pairs (10 µM, Eurofins) or 10 × Quantitect Primer Assay (Qiagen, #249900) was used for mRNA. To measure miRNA, RNA was reverse-transcribed using the miRNA TaqMan MicroRNA Reverse Transcription Kit (Applied Biosystems, #4366597) with specific miRNA RT primers (ThermoFisher, #4427975). cDNA was diluted 1:3 with dH2O before qPCR with Absolute Blue qPCR Mix (Abgene, #AB-4136/B) and the specific Taqman probes (ThermoFisher, #4427975). Runs were performed in ViiA7 (Applied Biosystems) or QuantStudio 7 Flex (Applied Biosystems). Real-time qPCR data were analysed as described elsewhere.

[3] = tested on: human cardiac fibroblasts (HCF); assay: TaqMan Array Human MicroRNA Cards, miRNA deregulation in HCF
Procedure: PCR amplification of array cards was performed as instructed. After quality control of all real-time qPCRs, cT values were exported and all runs were merged into a single excel file. Recommended baseline correction using relative thresholds to correct for varying reconstitution rates of different Taqman probes was not performed. Low-expressed miRNAs with cT > 32 in more than 1 replicate per treatment were excluded from analysis, before samples were normalized to column mean. Multiple unpaired t tests were performed using GraphPad Prism, deregulations were accepted as discoveries if FDR ≤ 1% (using BKY adjustment). As miRNA identifiers were based on miRbase v14, we converted them to the latest v22 for further analysis using miRBaseConverter. 747 sequences could be converted correctly, while the remaining miRNAs were removed from miRbase due to incorrect annotation (e.g. the sequences of hsa-miR-886-3p and hsa-miR-886-5p are part of VTRNA2-1 [44]) or no evidence of human expression.

[4] = tested on: human cardiac fibroblasts (HCF); assay: nCounter Fibrosis Panel mRNA profiling of HCF; conditions: 24 h treatment
Procedure: Briefly, 100 ng/5µL isolated total RNA of HCF after 24 h treatment (RIN > 7.5 and […] > 88%) was mixed with the hybridization Master Mix and incubated at 65 °C for 20 h before loading on a nCounter® FLEX (Department of Pathology, Hannover Medical School, Germany). All run files (.RCC) were compiled into a single experiment using the nSolver analysis software. […] Reference genes for normalization were determined by nSolver using all samples (ACAD9, ARMH3, CNOT10, GUSB, MTMR14, NOL7, NUBP1, PGK1, PPIA, RPLP0, see supplemental Fig. 4e, f). We then used the Advanced analysis plugin (v2.0.115) including LOT as confounder variable and BY adjusted p value < 0.05 for identification of central deregulated pathways. Additionally, normalized counts were further analysed with GraphPad Prism using multiple unpaired t tests with FDR ≤ 5% after BKY adjustment and log2 |FC| ≥ 1.

[5] = mean of DMSO minus mean of treatment

Compound: O[C@H]1[C@H]2c3cc4c(cc3CN3CCC(=C[C@@H]1O)[C@H]23)OCO4 [Lycorine, lycorine]
- EC50 [1]: 2800 nM
- FAP expression (qPCR) [2]: not
- MMP2 expression (qPCR) [2]: not
- Mean of treatment, hsa-miR-30e-3p-000422 ([3]; cT normalized to column mean): -5.454
- Mean of treatment, hsa-miR-16-000391 ([3]; cT normalized to column mean): -6.115
- Mean of treatment, hsa-miR-28-3p-002446 ([3]; cT normalized to column mean): -2.622
- Mean of treatment, hsa-miR-29a-002112 ([3]; cT normalized to column mean): -7.899
- Mean of treatment, hsa-miR-30a-3p-000416 ([3]; cT normalized to column mean): -5.962
- Mean of treatment, hsa-miR-31#-002113 ([3]; cT normalized to column mean): -6.203
- Mean of treatment, hsa-miR-31-002279 ([3]; cT normalized to column mean): -7.455
- Mean of treatment, hsa-miR-34a#-002316 ([3]; cT normalized to column mean): -2.58
- Mean of treatment, hsa-miR-125a-5p-002198 ([3]; cT normalized to column mean): -3.201
- Mean of treatment, hsa-miR-132-000457 ([3]; cT normalized to column mean): -3.872
- Mean of treatment, hsa-miR-140-3p-002234 ([3]; cT normalized to column mean): -1.119
- Mean of treatment, hsa-miR-151-3p-002254 ([3]; cT normalized to column mean): -5.192
- Mean of treatment, hsa-miR-155-002623 ([3]; cT normalized to column mean): -3.701
- Mean of treatment, hsa-miR-186-002285 ([3]; cT normalized to column mean): -4.072
- Mean of treatment, hsa-miR-191-002299 ([3]; cT normalized to column mean): -6.639
- Mean of treatment, hsa-miR-193b-002367 ([3]; cT normalized to column mean): -4.73
- Mean of treatment, hsa-miR-222#-002097 ([3]; cT normalized to column mean): -3.599
- Mean of treatment, hsa-miR-222-002276 ([3]; cT normalized to column mean): -9.167
- Mean of treatment, hsa-miR-331-000545 ([3]; cT normalized to column mean): -4.63
- Mean of treatment, hsa-miR-339-3p-002184 ([3]; cT normalized to column mean): -0.6811
- Mean of treatment, hsa-miR-342-3p-002260 ([3]; cT normalized to column mean): -3.089
- Mean of treatment, hsa-miR-376a-000565 ([3]; cT normalized to column mean): -1.759
- Mean of treatment, hsa-miR-376c-002122 ([3]; cT normalized to column mean): -3.539
- Mean of treatment, hsa-miR-409-3p-002332 ([3]; cT normalized to column mean): -4.891
- Mean of treatment, hsa-miR-625#-002432 ([3]; cT normalized to column mean): -4.373
- Mean of treatment, hsa-miR-1274B-002884 ([3]; cT normalized to column mean): -9.621
- Difference / ΔCT, hsa-miR-30e-3p-000422 [3, 5]: 0.9633
- Difference / ΔCT, hsa-miR-16-000391 [3, 5]: 0.8517
- Difference / ΔCT, hsa-miR-28-3p-002446 [3, 5]: 0.8307
- Difference / ΔCT, hsa-miR-29a-002112 [3, 5]: 0.8647
- Difference / ΔCT, hsa-miR-30a-3p-000416 [3, 5]: 0.8856
- Difference / ΔCT, hsa-miR-31#-002113 [3, 5]: 0.5519
- Difference / ΔCT, hsa-miR-31-002279 [3, 5]: 0.598
- Difference / ΔCT, hsa-miR-34a#-002316 [3, 5]: 0.8439
- Difference / ΔCT, hsa-miR-125a-5p-002198 [3, 5]: 0.6283
- Difference / ΔCT, hsa-miR-132-000457 [3, 5]: 1.328
- Difference / ΔCT, hsa-miR-140-3p-002234 [3, 5]: 0.7567
- Difference / ΔCT, hsa-miR-151-3p-002254 [3, 5]: 0.604
- Difference / ΔCT, hsa-miR-155-002623 [3, 5]: 1.386
- Difference / ΔCT, hsa-miR-186-002285 [3, 5]: 1.039
- Difference / ΔCT, hsa-miR-191-002299 [3, 5]: 0.8243
- Difference / ΔCT, hsa-miR-193b-002367 [3, 5]: 0.5576
- Difference / ΔCT, hsa-miR-222#-002097 [3, 5]: 1.599
- Difference / ΔCT, hsa-miR-222-002276 [3, 5]: 0.8654
- Difference / ΔCT, hsa-miR-331-000545 [3, 5]: 0.6606
- Difference / ΔCT, hsa-miR-339-3p-002184 [3, 5]: 0.7187
- Difference / ΔCT, hsa-miR-342-3p-002260 [3, 5]: 0.7149
- Difference / ΔCT, hsa-miR-376a-000565 [3, 5]: 1.019
- Difference / ΔCT, hsa-miR-376c-002122 [3, 5]: 0.5396
- Difference / ΔCT, hsa-miR-409-3p-002332 [3, 5]: 0.9354
- Difference / ΔCT, hsa-miR-625#-002432 [3, 5]: 0.6889
- Difference / ΔCT, hsa-miR-1274B-002884 [3, 5]: -0.4297
- deregulation of fibrosis panel genes / pathways [4]: less deregulation (fold-change) compared to the other treatments
